Publication PMC10077203, “Structure modification, antialgal, antiplasmodial, and toxic evaluations of a series of new marine-derived 14-membered resorcylic acid lactone derivatives” (Marine Life Science & Technology, 2021)
In brackets after ≈: the same amount, converted by molar mass.

Tests used:
Staphylococcus aureus = experiment: Antimicrobial assay (serial dilution, MIC); assay type: cell-based; details: 37 °C, 24 h, read-out: minimum inhibitory concentration (MIC) S. aureus
Experimental: The antimicrobial activities were carried out by a serial dilution technique using 96-well microtiter plates (Pierce et al. [2008]). The derivatives were dissolved in DMSO to obtain a stock solution. Microbial species were cultured overnight at 37 °C in LB broth and diluted to 10^6 cfu/ml when used. LB broth was used as a blank control, and DMSO was used as a negative control, while ciprofloxacin was used as a positive control. The plates were incubated at 37 °C for 24 h.

P. tricornutum Bohlin = experiment: Diatom growth inhibition assay (antialgal activity); assay type: cell-based, Phaeodactylum tricornutum Bohlin; details: Phaeodactylum tricornutum, 48 h, chlorophyll a of attached microalgae, read-out: EC50 P. tricornutum
Experimental: (§1) The antialgal activity against the microalgae P. tricornutum Bohlin, C. vulgaris, C. socialis, N. laevissima, and N. exigua was evaluated by the method of Ortlepp et al. ([2008]). Briefly, the microalgae were grown in sterilized BG11 medium under light intensity of 2500 lx and 12 h: 12 h light: dark cycle at temperature of 20 ℃. The microalgae were grown to reach the logarithmic phase (approximately 5 × 10^5 cells/ml), which were used for microalgae growth inhibition assay. The compounds 1–71 were first dissolved in a small amount of DMSO and then diluted with 0.22 μm of filtered seawater (FSW) to achieve a range of concentrations from 0.625 to 50 μg/ml. Ten microliters of the compound solution was added to multiwell Petri dishes containing a 1-mL suspension of the microalgae (approximately 12 × 10^4 cells/ml). FSW with DMSO was used as a negative control, and solutions of SeaNine 211 in seawater were used as positive controls. After the plates were incubated for 48 h (16 ± 1 ℃) under continuous light, the FSW with non-attached microalgae was removed. The amount of chlorophyll a in attached microalgae was determined with a spectrophotometer (Beckman, model DU650, USA). Then the EC50 (inhibits 50% of settlement of cyprids in comparison with the control) was calculated using the Probit software program.

zebrafish embryos = experiment: Zebrafish embryo toxicity test; assay type: in vivo; details: for survival of zebrafish embryos: 100 μmol/L, 52 h
Experimental: Toxicity assays were carried out using the method of Wang et al. ([2011]). Briefly, the normal embryos were selected and transferred into a 24-well plate. The embryos at 1 h postfertilization (hpf) were exposed by immersion in E3 embryo medium containing the derivative in a 1% (v/v) DMSO final solvent concentration in a 24-well plate. The developmental phenotypes of the experimental status of the embryos were observed every 24 h for 72 h and were photographed with a charge-coupled device (CCD) camera.

N. laevissima = experiment: Diatom growth inhibition assay (antialgal activity); assay type: cell-based, Navicula laevissima; details: Sellaphora laevissima, 48 h, chlorophyll a of attached microalgae, read-out: EC50 N. laevissima
Experimental: as §1

[1] = test system: P. tricornutum Bohlin, C. vulgaris, C. socialis, N. laevissima, and N. exigua; experiment: Diatom growth inhibition assay, whole panel; assay type: cell-based; details: Chlorella vulgaris; selective and moderate activities; read-out: EC50 antialgal, range over compounds and algae
Experimental: as §1

C. vulgaris = experiment: Diatom growth inhibition assay (antialgal activity); assay type: cell-based, Chlorella vulgaris; details: Chlorella vulgaris; 48 h, chlorophyll a of attached microalgae; read-out: EC50 C. vulgaris
Experimental: as §1

C. socialis = experiment: as above; assay type: cell-based, Chaetoceros socialis; details: Chaetoceros socialis, 48 h, chlorophyll a of attached microalgae, read-out: EC50 C. socialis
Experimental: as §1

N. exigua = experiment: as above; assay type: cell-based, Navicula exigua; details: 48 h, chlorophyll a of attached microalgae, read-out: EC50 N. exigua
Experimental: as §1

[2] = test system: larval settlement of the barnacle Balanus Amphitrite; parameters: method as in Shao et al. [2011]; details: ref Shao et al. [2011]; cited from earlier work
[3] = test system: chloroquine sensitive HB3 strain of P. falciparum; experiment: In vitro antiplasmodial assay (Pico-Green growth inhibition); assay type: cell-based, Plasmodium falciparum; details: for P. falciparum SI, Selectivity Index (CC50/IC50): CC50 HUVEC / IC50 P. falciparum; for IC50: Plasmodium falciparum, Erythrocyte, HB3 strain in human erythrocytes, read-out: P. falciparum IC50
Experimental: In vitro antiplasmodial activity was performed by culturing human erythrocytes and infecting them with P. falciparum, as reported by Trager and Jensen ([1976]). Briefly, the chloroquine sensitive HB3 strain of P. falciparum-infected O + erythrocytes was cultured in RPMI 1640 medium supplemented with 10% human serum (from O + blood) at a hematocrit of 2% erythrocytes at 37 °C with a gas mixture containing 90% N2, 5% CO2, and 5% O2. Parasites were synchronized with 5% D-sorbitol (Lambros and Vanderberg [1979]). P. falciparum growth inhibition bioassays were performed with the procedure as described by Corbett et al. ([2004]), which used Pico-Green, a double stranded-DNA fluorescent dye to test the effect of compounds.

[4] = In vitro cytotoxicity (CC50); assay type: cell-based; details: human, HUVEC cells
Excerpt: Toxicity is a major concern of drug discovery and development, and the selectivity index (SI) is used as the evaluation parameter of drug potential of the test samples by comparing the toxicity on a human cell line (CC50) and the selective inhibitory effect on P. falciparum (IC50) calculated here as CC50/IC50. We decided to evaluate in vitro cytotoxicity of the active derivatives 38, 39, 50, 52, 65, 67, 70, and 71 by determining their 50% cytotoxic concentrations. The results are presented in Table 3, presenting only those CC50 values > 100 μmol/L, reaching selectivity indexes > 10. The cytotoxic concentration at 150 μmol/L was not be determined because of a lack of solubility of the tested molecule in the culture medium. Moreover, the toxicity of these derivatives was also evaluated against two other cell lines: hepatocellular liver carcinoma cell line (Hep G2) and cervical carcinoma (HeLa), finding CC50 values > 100 μmol/L.

SMILES: COc1cc2c(c(OCc3ccc(C(C)(C)C)cc3)c1)C(=O)OC(C)CC=CC(O)C(O)C(O)CC=C2 (centres unmarked) [Compound 26]
- MIC (Staphylococcus aureus): 25 µM (≈ 12.8 µg/mL)
- EC50 (P. tricornutum Bohlin): 25.7 µM
- death of zebrafish embryos (zebrafish embryos; 50 μmol/L, after 24 h): all embryos died
- EC50 (N. laevissima): > 10 µM
- EC50 [1]: 11 to 32.5 µM
- EC50 (C. vulgaris): > 10 µM
- EC50 (C. socialis): 18.4 µM
- EC50 (N. exigua): > 10 µM

SMILES: COc1cc(O)c2c(c1)/C=C/C[C@H](O)[C@@H]1OC(C)(C)O[C@H]1C=CC[C@H](C)OC2=O [cochliomycin A]
- concentration of significant antifouling activity against larval settlement [2]: 1.2 µg/mL

SMILES: COc1cc2c(c(OCc3ccc(-c4ccccc4C#N)cc3)c1)C(=O)OC(C)CC=CC1OC(C)(C)OC1C(O)CC=C2 (centres unmarked) [Compound 38]
- P. falciparum SI, Selectivity Index (CC50/IC50) [3]: > 12
- IC50 [3]: 8.06 µM
- survival of zebrafish embryos (zebrafish embryos): All embryos survived
- CC50 [4]: > 100 µM

SMILES: COC(=O)c1ccccc1-c1ccc(COc2cc(OC)cc3c2C(=O)OC(C)CC=CC2OC(C)(C)OC2C(O)CC=C3)cc1 (centres unmarked) [Compound 39]
- P. falciparum SI, Selectivity Index (CC50/IC50) [3]: > 14
- IC50 [3]: 6.69 µM
- survival of zebrafish embryos (zebrafish embryos): All embryos survived
- CC50 [4]: > 100 µM
